The source of these data is the supplement of paper PMC10331698.

± gives the standard deviation of the averaged measurements.

Holding throughout (assay): level (log10 ratio to DMSO vehicle control); higher = higher biomarker level / cell amount than vehicle control
Common to all, as to settings: in DMSO

Compound in assay [1]: COC(=O)CCC(F)(F)C(F)(F)C(F)(F)C(F)(F)F [Methyl 2H,2H,3H,3H-perfluoroheptanoate]
How it is done:
(§1)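 BioMAP Diversity Plus panel of 12 human primary cell co-culture systems (3C, 4H, LPS, SAg, BT, BF4T, BE3C, CASM3C, HDF3CGF, KF3CT, MyoF, Mphg). Compounds were added 1 h before stimulation and left for 24 h (MyoF 48 h; BT 72 h for soluble read-outs or 6 d for IgG). Biomarkers were read by ELISA, cytotoxicity by SRB, PBMC viability and proliferation by Alamar Blue. Each well value was divided by the mean of 8 DMSO control wells on the same plate and log10 transformed; duplicate blinded samples were tested at 4 concentrations.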

Compound in assay [2]: O=C(O)C(F)(F)C(F)(F)C(F)(F)OC(F)(C(F)(F)F)C(F)(F)F [Perfluoro-4-isopropoxybutanoic acid]
How it is done: as §1

Compound in another assay: O=C(O)C(F)(F)C(F)(F)C(F)(F)C(F)(F)C(F)(F)C(F)(F)C(F)(F)C(F)(F)C(F)(F)F [Perfluorodecanoic acid]
How it is done: as §1

Compound in assay [3]: NCC(F)(F)C(F)(F)C(F)(F)C(F)(F)C(F)(F)C(F)(F)C(F)(F)F [1H,1H-Perfluorooctylamine]
How it is done: as §1

Compound in the next assay: O=C(O)C(F)(F)C(F)(F)F [Perfluoropropanoic acid]
How it is done:
as §1

Compound in assay [4]: FC(F)(F)C(F)(C(F)(F)F)C(F)(F)C(F)(F)CC1CO1 [3-(Perfluoro-3-methylbutyl)-1,2-propenoxide]
How it is done:
as §1

Compound in the next assay: FC(F)(F)C(F)(F)C(F)(F)C(F)(F)C(F)(F)C(F)(F)I [Perfluoro-1-iodohexane]
How it is done:
as §1

As to LPS:CD40, the “level (log10)” value in assay [1] (6700 nM) was -0.017 ± 0.041; in assay [1] (20000 nM), 0.003 ± 0.051; in assay [1] (60000 nM) it was -0.015 ± 0.078; in assay [2] (6700 nM) it was 0.012 ± 0.041; in assay [2] (20000 nM), -0.011 ± 0.018; in assay [2] (60000 nM), -0.0405 ± 0.023. In addition, the “level (log10)” value is -0.015 ± 0.16 with Perfluorodecanoic acid (6700 nM); -0.0235 ± 0.12 with Perfluorodecanoic acid (20000 nM); -0.0195 ± 0.019 in assay [3] (6700 nM); -0.0095 ± 0.023 in assay [3] (20000 nM); -0.022 ± 0.04 in assay [3] (60000 nM); 0.0105 ± 0.043 in the assay with Perfluoropropanoic acid (6700 nM). Also, the “level (log10)” value in the assay with Perfluoropropanoic acid (20000 nM) is -0.0235 ± 0.0035; with Perfluoropropanoic acid (60000 nM), 0.011 ± 0.023; in assay [4] (6700 nM), -0.0195 ± 0.015; in assay [4] (20000 nM) it was -0.007 ± 0.034; with Perfluoro-1-iodohexane (6700 nM), 0.058 ± 0.0014; with Perfluoro-1-iodohexane (20000 nM) it was 0.0375 ± 0.005. Further, in the assay with Perfluoro-1-iodohexane (60000 nM), the “level (log10)” value is -0.0135 ± 0.061.

For LPS:CD62E/E-Selectin, the “level (log10)” value in assay [1] (6700 nM) was -0.0315 ± 0.0021; in assay [1] (20000 nM), -0.034 ± 0.0014; in assay [1] (60000 nM) it was 0.0015 ± 0.013; in assay [2] (6700 nM), -0.004 ± 0.013; in assay [2] (20000 nM) it was -0.013 ± 0.048; in assay [2] (60000 nM), 0.001 ± 0.021. Also, the “level (log10)” value in the assay with Perfluorodecanoic acid (6700 nM) is -0.0115 ± 0.00071; in the assay with Perfluorodecanoic acid (20000 nM), -0.0205 ± 0.015; in assay [3] (6700 nM), -0.017 ± 0.03; in assay [3] (20000 nM), -0.005 ± 0.033; in assay [3] (60000 nM), 0.008 ± 0.017; with Perfluoropropanoic acid (6700 nM), -0.007 ± 0.0014. In addition, the “level (log10)” value in the assay with Perfluoropropanoic acid (20000 nM) was -0.0195 ± 0.023; in the assay with Perfluoropropanoic acid (60000 nM) it was -0.0025 ± 0.0078; in assay [4] (6700 nM) it was 0.0165 ± 0.0035; in assay [4] (20000 nM) it was 0.0245 ± 0.025; with Perfluoro-1-iodohexane (6700 nM), -0.0115 ± 0.0035; in the assay with Perfluoro-1-iodohexane (20000 nM) it was -0.0175 ± 0.011. The “level (log10)” value with Perfluoro-1-iodohexane (60000 nM) came to 0.015 ± 0.023.

Turning to LPS:CD69, the “level (log10)” value is -0.019 ± 0.047 in assay [1] (6700 nM); 0.0115 ± 0.042 in assay [1] (20000 nM); -0.01 ± 0.052 in assay [1] (60000 nM); -0.0005 ± 0.023 in assay [2] (6700 nM); -0.006 ± 0.0042 in assay [2] (20000 nM); -0.0145 ± 0.046 in assay [2] (60000 nM). Further, the “level (log10)” value with Perfluorodecanoic acid (6700 nM) is -0.03 ± 0.011; in the assay with Perfluorodecanoic acid (20000 nM), -0.048 ± 0.0099; in assay [3] (6700 nM), -0.045 ± 0.017; in assay [3] (20000 nM), -0.0255 ± 0.036; in assay [3] (60000 nM) it was 0.002 ± 0.0071; in the assay with Perfluoropropanoic acid (6700 nM), -0.001 ± 0.023. Besides, the “level (log10)” value with Perfluoropropanoic acid (20000 nM) was 0.0035 ± 0.012; in the assay with Perfluoropropanoic acid (60000 nM) it was 0.005 ± 0.027; in assay [4] (6700 nM) it was -0.023 ± 0.027; in assay [4] (20000 nM) it was -0.004 ± 0.0057; in the assay with Perfluoro-1-iodohexane (6700 nM), -0.0185 ± 0.0064; in the assay with Perfluoro-1-iodohexane (20000 nM), -0.0025 ± 0.0035. Further, in the assay with Perfluoro-1-iodohexane (60000 nM), the “level (log10)” value is -0.032 ± 0.0099.

As to LPS:CD106/VCAM-1, the “level (log10)” value is -0.0265 ± 0.011 in assay [1] (6700 nM); -0.0265 ± 0.00071 in assay [1] (20000 nM); -0.0085 ± 0.021 in assay [1] (60000 nM); -0.0015 ± 0.016 in assay [2] (6700 nM); -0.0075 ± 0.0078 in assay [2] (20000 nM); -0.0095 ± 0.028 in assay [2] (60000 nM). The “level (log10)” value in the assay with Perfluorodecanoic acid (6700 nM) is 0.0015 ± 0.0035; with Perfluorodecanoic acid (20000 nM), -0.001 ± 0.0014; in assay [3] (6700 nM), -0.006 ± 0.023; in assay [3] (20000 nM), -0.015 ± 0.013; in assay [3] (60000 nM) it was -0.0135 ± 0.0092; in the assay with Perfluoropropanoic acid (6700 nM), -0.0105 ± 0.018. The “level (log10)” value in the assay with Perfluoropropanoic acid (20000 nM) is -0.008 ± 0.02; in the assay with Perfluoropropanoic acid (60000 nM), -0.0055 ± 0.022; in assay [4] (6700 nM), -0.0085 ± 0.019; in assay [4] (20000 nM), 0.015 ± 0.013; with Perfluoro-1-iodohexane (6700 nM) it was -0.031 ± 0.0057; with Perfluoro-1-iodohexane (20000 nM), -0.0145 ± 0.018. In addition, the “level (log10)” value with Perfluoro-1-iodohexane (60000 nM) was -0.029 ± 0.0028.

For the test system LPS:CD141/Thrombomodulin, the “level (log10)” value in assay [1] (6700 nM) is -0.0375 ± 0.037; in assay [1] (20000 nM), -0.0325 ± 0.0092; in assay [1] (60000 nM), -0.0255 ± 0.0078; in assay [2] (6700 nM), 0.0205 ± 0.012; in assay [2] (20000 nM), 0.016 ± 0.013; in assay [2] (60000 nM), 0.0225 ± 0.0035. Further, the “level (log10)” value in the assay with Perfluorodecanoic acid (6700 nM) was 0.0035 ± 0.00071; in the assay with Perfluorodecanoic acid (20000 nM), 0.002 ± 0.0057; in assay [3] (6700 nM) it was -0.0055 ± 0.025; in assay [3] (20000 nM), -0.0355 ± 0.021; in assay [3] (60000 nM), -0.026 ± 0.034; with Perfluoropropanoic acid (6700 nM), -0.003 ± 0.027. The “level (log10)” value is -0.007 ± 0.0057 with Perfluoropropanoic acid (20000 nM); 0.013 ± 0.0057 with Perfluoropropanoic acid (60000 nM); 0.0355 ± 0.0035 in assay [4] (6700 nM); 0.019 ± 0.034 in assay [4] (20000 nM); -0.0175 ± 0.0035 in the assay with Perfluoro-1-iodohexane (6700 nM); -0.0095 ± 0.025 with Perfluoro-1-iodohexane (20000 nM). In addition, the “level (log10)” value with Perfluoro-1-iodohexane (60000 nM) is -0.0105 ± 0.0092.
